{
  "source": "patent US5358951A",
  "about": "“Angiotensin II receptor blocking 2, 3, 6 substituted quinazolinones” (American Cyanamid Company, priority 1993, dated 1994)",
  "system": "vasopressor response of angiotensin II",
  "assay": "AII Challenge: antagonism of angiotensin II vasopressor response",
  "format": "in vivo",
  "conditions": "for inhibition in vivo at 1 mg/kg: Rattus norvegicus",
  "procedure,_shortened": "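Percent antagonism is based on the systolic blood pressure rise (mmHg) to i.v. angiotensin II at 0.05 and 0.1 ug/kg. Each rat's own predose response was taken as 100%. Challenges were repeated from 30 to 300 min after i.v., i.p. or oral compound in cannulated conscious male SHR, 16-20 weeks old.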",
  "data": [
    {"compound": "CCCCc1nc2ccc(C3(CO)CC4CCCN4O3)cc2c(=O)n1Cc1ccc(-c2ccccc2-c2nnn[nH]2)cc1", "note": "(stereo not drawn) [Example 80, (Trans)-2-butyl-6-[hexahydro-2-(hydroxymethyl)-Pyrrolo[1,2-b]isoxazol-2-yl]-3-[[2'-[1H-tetrazol-5-yl)[1,1'-biphenyl]-4-yl]methyl-4(3H)quinazolinone]", "values": [
      {"measurement": "Response Average Change", "setting": "1 mg/kg P.O., AII 0.05 mcg/kg IV, 30 min post dose", "value": 30, "unit": "mmHg"},
      {"measurement": "Response Average Change", "setting": "1 mg/kg P.O., AII 0.05 mcg/kg IV, 60 min post dose", "value": 15, "unit": "mmHg"},
      {"measurement": "Response Average Change", "setting": "1 mg/kg P.O., AII 0.05 mcg/kg IV, 90 min post dose", "value": 22.5, "unit": "mmHg"},
      {"measurement": "Response Average Change", "setting": "1 mg/kg P.O., AII 0.05 mcg/kg IV, 120 min post dose", "value": 10, "unit": "mmHg"},
      {"measurement": "Response Average Change", "setting": "1 mg/kg P.O., AII 0.05 mcg/kg IV, 180 min post dose", "value": 19, "unit": "mmHg"},
      {"measurement": "Response Average Change", "setting": "1 mg/kg P.O., AII 0.05 mcg/kg IV, 240 min post dose", "value": 17.5, "unit": "mmHg"},
      {"measurement": "Response Average Change", "setting": "1 mg/kg P.O., AII 0.05 mcg/kg IV, 300 min post dose", "value": 30, "unit": "mmHg"},
      {"measurement": "Response Average Change", "setting": "1 mg/kg P.O., AII 0.1 mcg/kg IV, 30 min post dose", "value": 37.5, "unit": "mmHg"},
      {"measurement": "Response Average Change", "setting": "1 mg/kg P.O., AII 0.1 mcg/kg IV, 60 min post dose", "value": 32.5, "unit": "mmHg"},
      {"measurement": "Response Average Change", "setting": "1 mg/kg P.O., AII 0.1 mcg/kg IV, 90 min post dose", "value": 27.5, "unit": "mmHg"},
      {"measurement": "Response Average Change", "setting": "1 mg/kg P.O., AII 0.1 mcg/kg IV, 120 min post dose", "value": 22.5, "unit": "mmHg"},
      {"measurement": "Response Average Change", "setting": "1 mg/kg P.O., AII 0.1 mcg/kg IV, 180 min post dose", "value": 25, "unit": "mmHg"},
      {"measurement": "Response Average Change", "setting": "1 mg/kg P.O., AII 0.1 mcg/kg IV, 240 min post dose", "value": 25, "unit": "mmHg"},
      {"measurement": "Response Average Change", "setting": "1 mg/kg P.O., AII 0.1 mcg/kg IV, 300 min post dose", "value": 27.5, "unit": "mmHg"},
      {"measurement": "Response Average Change", "setting": "1 mg/kg i.v., AII 0.05 mcg/kg IV, 30 min post dose", "value": 5, "unit": "mmHg"},
      {"measurement": "Response Average Change", "setting": "1 mg/kg i.v., AII 0.05 mcg/kg IV, 60 min post dose", "value": 5, "unit": "mmHg"},
      {"measurement": "Response Average Change", "setting": "1 mg/kg i.v., AII 0.05 mcg/kg IV, 90 min post dose", "value": 9, "unit": "mmHg"},
      {"measurement": "Response Average Change", "setting": "1 mg/kg i.v., AII 0.05 mcg/kg IV, 120 min post dose", "value": 12.5, "unit": "mmHg"},
      {"measurement": "Response Average Change", "setting": "1 mg/kg i.v., AII 0.05 mcg/kg IV, 180 min post dose", "value": 12.5, "unit": "mmHg"},
      {"measurement": "Response Average Change", "setting": "1 mg/kg i.v., AII 0.05 mcg/kg IV, 240 min post dose", "value": 20, "unit": "mmHg"},
      {"measurement": "Response Average Change", "setting": "1 mg/kg i.v., AII 0.05 mcg/kg IV, 300 min post dose", "value": 16.5, "unit": "mmHg"},
      {"measurement": "Response Average Change", "setting": "1 mg/kg i.v., AII 0.1 mcg/kg IV, 30 min post dose", "value": 8.5, "unit": "mmHg"},
      {"measurement": "Response Average Change", "setting": "1 mg/kg i.v., AII 0.1 mcg/kg IV, 60 min post dose", "value": 10, "unit": "mmHg"},
      {"measurement": "Response Average Change", "setting": "1 mg/kg i.v., AII 0.1 mcg/kg IV, 90 min post dose", "value": 22.5, "unit": "mmHg"},
      {"measurement": "Response Average Change", "setting": "1 mg/kg i.v., AII 0.1 mcg/kg IV, 120 min post dose", "value": 17.5, "unit": "mmHg"},
      {"measurement": "Response Average Change", "setting": "1 mg/kg i.v., AII 0.1 mcg/kg IV, 180 min post dose", "value": 17.5, "unit": "mmHg"},
      {"measurement": "Response Average Change", "setting": "1 mg/kg i.v., AII 0.1 mcg/kg IV, 240 min post dose", "value": 22.5, "unit": "mmHg"},
      {"measurement": "Response Average Change", "setting": "1 mg/kg i.v., AII 0.1 mcg/kg IV, 300 min post dose", "value": 30, "unit": "mmHg"},
      {"measurement": "inhibition in vivo at 1 mg/kg", "setting": "iv, 0.5 h, 1 mg/kg i.v., AII 0.05 mcg/kg IV, 30 min post dose", "value": 90, "unit": "%"},
      {"measurement": "inhibition in vivo at 1 mg/kg", "setting": "iv, 0.5 h, 1 mg/kg i.v., AII 0.1 mcg/kg IV, 30 min post dose", "value": 83, "unit": "%"},
      {"measurement": "inhibition in vivo at 1 mg/kg", "setting": "iv, 1 h, 1 mg/kg i.v., AII 0.05 mcg/kg IV, 60 min post dose", "value": 90, "unit": "%"},
      {"measurement": "inhibition in vivo at 1 mg/kg", "setting": "iv, 1 h, 1 mg/kg i.v., AII 0.1 mcg/kg IV, 60 min post dose", "value": 80, "unit": "%"},
      {"measurement": "inhibition in vivo at 1 mg/kg", "setting": "iv, 2 h, 1 mg/kg i.v., AII 0.05 mcg/kg IV, 120 min post dose", "value": 76, "unit": "%"},
      {"measurement": "inhibition in vivo at 1 mg/kg", "setting": "iv, 2 h, 1 mg/kg i.v., AII 0.1 mcg/kg IV, 120 min post dose", "value": 65, "unit": "%"},
      {"measurement": "inhibition in vivo at 1 mg/kg", "setting": "iv, 3 h, 1 mg/kg i.v., AII 0.05 mcg/kg IV, 180 min post dose", "value": 76, "unit": "%"},
      {"measurement": "inhibition in vivo at 1 mg/kg", "setting": "iv, 3 h, 1 mg/kg i.v., AII 0.1 mcg/kg IV, 180 min post dose", "value": 65, "unit": "%"},
      {"measurement": "inhibition in vivo at 1 mg/kg", "setting": "iv, 4 h, 1 mg/kg i.v., AII 0.05 mcg/kg IV, 240 min post dose", "value": 62, "unit": "%"},
      {"measurement": "inhibition in vivo at 1 mg/kg", "setting": "iv, 4 h, 1 mg/kg i.v., AII 0.1 mcg/kg IV, 240 min post dose", "value": 55, "unit": "%"},
      {"measurement": "inhibition in vivo at 1 mg/kg", "setting": "iv, 5 h, 1 mg/kg i.v., AII 0.05 mcg/kg IV, 300 min post dose", "value": 69, "unit": "%"},
      {"measurement": "inhibition in vivo at 1 mg/kg", "setting": "iv, 5 h, 1 mg/kg i.v., AII 0.1 mcg/kg IV, 300 min post dose", "value": 40, "unit": "%"},
      {"measurement": "inhibition in vivo at 1 mg/kg", "setting": "iv, […], 1 mg/kg i.v., AII 0.05 mcg/kg IV, 90 min post dose", "value": 83, "unit": "%"},
      {"measurement": "inhibition in vivo at 1 mg/kg", "setting": "iv, […], 1 mg/kg i.v., AII 0.1 mcg/kg IV, 90 min post dose", "value": 55, "unit": "%"},
      {"measurement": "inhibition in vivo at 1 mg/kg", "setting": "po, 0.5 h, 1 mg/kg P.O., AII 0.05 mcg/kg IV, 30 min post dose", "value": 25, "unit": "%"},
      {"measurement": "inhibition in vivo at 1 mg/kg", "setting": "po, 0.5 h, 1 mg/kg P.O., AII 0.1 mcg/kg IV, 30 min post dose", "value": 6, "unit": "%"},
      {"measurement": "inhibition in vivo at 1 mg/kg", "setting": "po, 1 h, 1 mg/kg P.O., AII 0.05 mcg/kg IV, 60 min post dose", "value": 63, "unit": "%"},
      {"measurement": "inhibition in vivo at 1 mg/kg", "setting": "po, 1 h, 1 mg/kg P.O., AII 0.1 mcg/kg IV, 60 min post dose", "value": 19, "unit": "%"},
      {"measurement": "inhibition in vivo at 1 mg/kg", "setting": "po, 2 h, 1 mg/kg P.O., AII 0.05 mcg/kg IV, 120 min post dose", "value": 75, "unit": "%"},
      {"measurement": "inhibition in vivo at 1 mg/kg", "setting": "po, 2 h, 1 mg/kg P.O., AII 0.1 mcg/kg IV, 120 min post dose", "value": 44, "unit": "%"},
      {"measurement": "inhibition in vivo at 1 mg/kg", "setting": "po, 3 h, 1 mg/kg P.O., AII 0.05 mcg/kg IV, 180 min post dose", "value": 53, "unit": "%"},
      {"measurement": "inhibition in vivo at 1 mg/kg", "setting": "po, 3 h, 1 mg/kg P.O., AII 0.1 mcg/kg IV, 180 min post dose", "value": 38, "unit": "%"},
      {"measurement": "inhibition in vivo at 1 mg/kg", "setting": "po, 4 h, 1 mg/kg P.O., AII 0.05 mcg/kg IV, 240 min post dose", "value": 56, "unit": "%"},
      {"measurement": "inhibition in vivo at 1 mg/kg", "setting": "po, 4 h, 1 mg/kg P.O., AII 0.1 mcg/kg IV, 240 min post dose", "value": 38, "unit": "%"},
      {"measurement": "inhibition in vivo at 1 mg/kg", "setting": "po, 5 h, 1 mg/kg P.O., AII 0.05 mcg/kg IV, 300 min post dose", "value": 25, "unit": "%"},
      {"measurement": "inhibition in vivo at 1 mg/kg", "setting": "po, 5 h, 1 mg/kg P.O., AII 0.1 mcg/kg IV, 300 min post dose", "value": 31, "unit": "%"},
      {"measurement": "inhibition in vivo at 1 mg/kg", "setting": "po, […], 1 mg/kg P.O., AII 0.05 mcg/kg IV, 90 min post dose", "value": 44, "unit": "%"},
      {"measurement": "inhibition in vivo at 1 mg/kg", "setting": "po, […], 1 mg/kg P.O., AII 0.1 mcg/kg IV, 90 min post dose", "value": 31, "unit": "%"}
    ]}
  ]
}
